Experimental findings from PMC12040169 (PLOS Biology, 2025) are described below.

Structures are written as SMILES.

A short description of the series: in vitro. As to conditions: human, hela cells, % viability.
A word on the viability: it is a read-out of living cells in per cent, often relative to untreated cells. `CC(Cc1cnccn1)NC(=O)Nc1cc(N2CCOCC2)ccc1Cl` (stereo not drawn) [CBK306954]: the viability at 28.5 h, 10 µM turned out to be 111%.
In the case of `COC(CNC(=O)Cn1nnnc1CN1CCC(C)CC1)c1cccs1` (stereo not drawn) [CBK306958], the viability at 28.5 h, 10 µM was 109%.
Regarding `COc1ccccc1CN(Cc1cccnc1)C(=O)CCN1CCCO1` [CBK306959], the viability at 28.5 h, 10 µM came to 98.1%.
As to `Cc1cc(=O)c2ccccc2n1CC(=O)N(C)CC1CCCCO1` (stereo not drawn) [CBK306960], the viability at 28.5 h, 10 µM came to 94.4%.
With `CN(Cc1cnn(C)c1)c1nccc(N2CCN[C@H]3CS(=O)(=O)C[C@H]32)n1` [CBK306964], the viability at 28.5 h, 10 µM is 100%.
`CN(CC1CCCCO1)C(=O)c1ccc(-c2ccccc2C(N)=O)cc1` (stereo not drawn) [CBK306967]: the viability at 28.5 h, 10 µM was determined as 92.6%.
For the compound `CC(=O)N1CCc2nc(C)nc(N(C)Cc3cnn(C(C)C)c3)c2CC1` [CBK306968], the viability at 28.5 h, 10 µM stood at 83.1%.
As for `Cc1nc(O)cc(C2CCCN(C(=O)c3scc4c3CCCC4)C2)n1` (stereo not drawn) [CBK306969], the viability at 28.5 h, 10 µM stood at 88.5%.
With `O=C(NC1CCN(Cc2cc(F)cc(F)c2)CC1)c1cn2ccsc2n1` [CBK306970] the figure was 80%; with `COc1ccccc1CN(Cc1cccnc1)C(=O)c1cnc(C)cn1` [CBK306972], 95.1%; with `CCCCSc1nc(N)cc(N2CCC(N3CCOC3=O)CC2)n1` [CBK306974], 82.1%.
Under `CC(C)c1cc(C(=O)NC2CCN(c3ncccc3C#N)CC2)n(C)n1` [CBK306975] stands 87.1%; under `COc1ccc(C(Nc2ccnc(OC)c2C#N)[C@H]2C[C@@H](O)C2)cn1` (stereo partly drawn) [CBK306980], 84.6%.
Take `COCCNS(=O)(=O)c1cccc2c1CN(C(=O)CC1CCCC1)CC2` [CBK306982]: the viability at 28.5 h, 10 µM was 101%.
With `COCCN(Cc1ccncc1)C(=O)c1cc(C(C)C)n2ncnc2n1` [CBK306983] the figure was 97.4%.
Take `Cc1ccc2nc(CNC(=O)N(C)CCc3c(C)n[nH]c3C)cn2c1` [CBK306984]: the viability at 28.5 h, 10 µM is 81.1%.
With `Cn1c(CN2CCN(c3ccc(C#N)cc3)CC2)nnc1[C@H]1C[C@@H](N)C1` [CBK306985], the viability at 28.5 h, 10 µM came out at 109%.
Under `CN1CCCCCC1c1nc(-c2c[nH]c3ccccc23)nn1CCO` (stereo not drawn) [CBK306988] stands 96%; under `Cc1cccc(=O)n1CCCNc1cc(C2CCOC2)ncn1` (stereo not drawn) [CBK306992], 84.4%.
For the compound `CCCCSc1nc(N)cc(N2CCCC(N3CCCC3=O)C2)n1` (stereo not drawn) [CBK306995], the viability at 28.5 h, 10 µM came out at 95.5%.
With `CSc1ncc(CNC(=O)Nc2ccc3c(c2)CCC3)n1C` [CBK306996] the figure was 107%.
Under `Cc1ccn(CCNC(=O)C2CCC(=O)N(CCc3ccccn3)C2)n1` (stereo not drawn) [CBK306998] stands 93.5%; under `CCCCC(c1cccnc1)N(C)C(=O)c1cc(C)c(CC)n(C)c1=O` (stereo not drawn) [CBK306999], 88.5%.
With `CCCCSc1nc(N)cc(N2CCC3(CCNC(=O)CC3)CC2)n1` [CBK307001] the figure was 98.2%.
On to `CC(C)NC(=O)NC1CCCc2nc(N3CCC(CO)CC3)ncc21` (stereo not drawn) [CBK307002], for which the viability at 28.5 h, 10 µM was 83.3%.
With `CSCCNC(=O)c1coc(COc2ccc3sc(C)nc3c2)n1` [CBK307004] the figure was 99.3%; with `c1cnc(NCc2cc3n(n2)CCN(CC2CCCC2)C3)nc1` [CBK307007], 87.9%; with `CN(CCc1cnn(C)c1)C(=O)NCCCN1CCCC1=O` [CBK307008], 91.1%.
Regarding `CC(=O)Nc1cccc(C(=O)N2CCC(OCc3ccccn3)CC2)c1` [CBK307009], the viability at 28.5 h, 10 µM was determined as 114%.
Under `CCn1cc(CN(C)Cc2ccon2)c2cc(C(=O)O)ncc21` [CBK307017] stands 84.7%.
Turning to `CCN(C)CC(=O)N1CCC(Oc2cc(C)ccc2F)(C(=O)O)CC1` [CBK307020], the viability at 28.5 h, 10 µM is 105%.
On to `Cc1nc(N)nc(N[C@@H]2CCOC[C@H]2OCCN(C)C)c1Cl` [CBK307024], for which the viability at 28.5 h, 10 µM worked out at 88.7%.
`Cc1cnc(NCC2(CO)CCOCC2)nc1N(C)C` [CBK307026]: the viability at 28.5 h, 10 µM stood at 104%.
For the compound `CCn1c(CC2CCN(c3nc(C)cc(C)c3C#N)CC2)nn(C)c1=O` [CBK307027], the viability at 28.5 h, 10 µM was 111%.
With `COCCn1c(CO)nnc1[C@H]1C[C@@H](NC(=O)c2cc(F)ccc2F)C1` [CBK307032] the figure was 85.1%.
Under `Cn1cc(NC(=O)N2CCCN(Cc3ccccn3)CC2)nn1` [CBK307034] stands 86.8%; under `Cc1nc(N2CCCCC2)ncc1C(=O)NCCc1cc[nH]n1` [CBK307035], 113%.
On to `CCCN1CC(NS(=O)(=O)c2cc(OC)c(C)cc2OC)CC1=O` (stereo not drawn) [CBK307036], for which the viability at 28.5 h, 10 µM was 75.4%.
On to `N[C@H]1C[C@H](c2nnc(Cn3ncc(N4CCCC4)cc3=O)n2C2CC2)C1` [CBK307039], for which the viability at 28.5 h, 10 µM came out at 107%.
With `CCOC(=O)N1CCN(C2CCCN(Cc3cnc(N(C)C)s3)C2)CC1` (stereo not drawn) [CBK307041] the figure was 93.7%; with `Nc1nonc1-n1cc(CN2CCCCC2)nn1` [CBK307044], 97.1%.
Turning to `COCCn1cnnc1C(C)NC(=O)Cn1cc2ccccc2n1` (stereo not drawn) [CBK307047], the viability at 28.5 h, 10 µM worked out at 92.1%.
In the case of `CC(C)Cc1cc(CNC(=O)Nc2cc(-c3cccnc3)nn2C)no1` [CBK307048], the viability at 28.5 h, 10 µM came to 84.9%.
For `CC(C)CC(NC(=O)Cc1cccc(O)c1)c1ncnn1C` (stereo not drawn) [CBK307050], the viability at 28.5 h, 10 µM came to 105%.
For the compound `CC(CN1CCOCC1)NS(=O)(=O)c1cccc(C(=O)N2CCCC2)c1` (stereo not drawn) [CBK307053], the viability at 28.5 h, 10 µM came out at 107%.
On to `Cc1nc2ncc(-c3ccccc3C(=O)N(C(C)C)C(C)C)cn2n1` [CBK307054], for which the viability at 28.5 h, 10 µM was determined as 84.1%.
On to `COCCN(Cc1cnn(C)c1)C(=O)c1ccc2oc(C)cc2c1` [CBK307059], for which the viability at 28.5 h, 10 µM worked out at 96.6%.
With `CN(CC1CCCC1)c1nccc(N2CCN[C@H]3CS(=O)(=O)C[C@H]32)n1` [CBK307060] the figure was 83.9%.
Turning to `COCCn1c(CO)nnc1[C@H]1C[C@@H](NC(=O)c2ccc(C)s2)C1` [CBK307063], the viability at 28.5 h, 10 µM came to 73.9%.
`Cc1nc(C(C)NC(=O)CCc2cnn(C)c2)c(C)s1` (stereo not drawn) [CBK307064]: the viability at 28.5 h, 10 µM turned out to be 92.6%.
Under `CCNc1ncc(C(=O)NC(CCn2ccnc2)c2ccccc2)cn1` (stereo not drawn) [CBK307066] stands 110%.
With `Cc1nc2cc(OCc3nc(C(=O)NCC(O)CO)co3)ccc2s1` (stereo not drawn) [CBK307067] the figure was 102%; with `Cc1ccsc1C(=O)N1CCC(n2cc(C(C)(C)O)nn2)CC1` [CBK307069], 110%.
With `COc1cc(OC)c(CN2CC3(C)CC2CC(C)(C)C3)cc1Br` (stereo not drawn) [CBK307074], the viability at 28.5 h, 10 µM stood at 86.4%.
For the compound `O=C(c1ccc2c(c1)ncn2CCO)N1CCC(c2ccccc2F)C1` (stereo not drawn) [CBK307075], the viability at 28.5 h, 10 µM was found to be 88.5%.
Under `CSc1nccc(N2CCC(NCCCn3ccnn3)CC2)n1` [CBK307076] stands 92.7%; under `CCc1ncc(C(=O)N(Cc2ccccn2)CC2CCCO2)cn1` (stereo not drawn) [CBK307077], 95.1%; under `CCc1c(C)cc(C(=O)N(C)C(CC)c2ccccn2)c(=O)n1C` (stereo not drawn) [CBK307078], 95.6%.
Under `Cn1cc(CNC(=O)Nc2cc(C(=O)N3CCOCC3)ccc2Cl)cn1` [CBK307080] stands 83.4%; under `CN(Cc1ccncn1)C(=O)c1cn(CC2CCCO2)nn1` (stereo not drawn) [CBK307081], 108%; under `Cc1nc2c(c(N(C)C)n1)CCN(C(=O)c1cnn(C(C)C)c1)C2` [CBK307083], 109%.
Turning to `Cn1nnnc1SCCNC(=O)Nc1ccc(CN2CCOCC2)cc1` [CBK307084], the viability at 28.5 h, 10 µM was determined as 97.4%.
As to `Cn1nccc1CCNS(=O)(=O)c1cccc(C(=O)N2CCCCC2)c1` [CBK307086], the viability at 28.5 h, 10 µM came to 89.2%.
Turning to `Cc1nn(CC(=O)N(C)CCCc2nccn2C)c(=O)c2ccccc12` [CBK307087], the viability at 28.5 h, 10 µM worked out at 92.2%.
With `CCC(NC(=O)CCc1cc2n(n1)CCNC2)c1cn2cccnc2n1` (stereo not drawn) [CBK307090] the figure was 87.1%.
With `CN(C)c1nc(N(C)CC2(CO)CCOCC2)ncc1F` [CBK307091] the figure was 110%.
Under `CC1(C)CC(NC(=O)c2cc(Cn3ccc4ccccc43)[nH]n2)CCO1` (stereo not drawn) [CBK307092] stands 87.7%; under `O=C(N[C@H]1C[C@H](c2nnc(CO)n2C2CC2)C1)c1ccc(Cl)c(F)c1` [CBK307093], 91.4%; under `CCCn1cc(CNC(=O)c2cccc(S(=O)(=O)N3CCCC3)c2)cn1` [CBK307095], 78.5%.
Turning to `Cc1cc(F)ccc1C(=O)NCC1CCN(c2cnn(C)c(=O)c2)C1` (stereo not drawn) [CBK307097], the viability at 28.5 h, 10 µM stood at 112%.
Under `CC1CCc2c(sc(NC(=O)c3cccs3)c2C(=O)N(C)C)C1` (stereo not drawn) [CBK307100] stands 90.9%; under `COc1ccccc1CN(Cc1cccnc1)C(=O)CCn1cnnn1` [CBK307106], 90.4%; under `CN(C(=O)C1CCc2nn(C)c(=O)n2C1)C1Cc2ccccc2C1` (stereo not drawn) [CBK307108], 107%.
With `COc1cc2c(cc1-c1cn(CCc3n[nH]c(=O)[nH]3)nn1)CCC2` [CBK307112] the figure was 98.3%; with `NC1CC(c2cc(NCCCc3nnc4ccccn34)ncn2)C1` (stereo not drawn) [CBK307120], 104%.
Under `CCCCC(c1cccnc1)N(C)C(=O)c1cnc(C)c(C)c1` (stereo not drawn) [CBK307121] stands 103%; under `CCCn1ncc(C(=O)N2CCN(CC3CCCN(C)C3)CC2)c1C` (stereo not drawn) [CBK307122], 89.1%.
With `CN1CCCN(c2cnn(Cc3ccc(Cl)s3)c(=O)c2)CC1` [CBK307123], the viability at 28.5 h, 10 µM stood at 90.8%.
In the case of `Cn1ccnc1CCC1CCCCN1C(=O)NCc1cccc(F)c1` (stereo not drawn) [CBK307124], the viability at 28.5 h, 10 µM is 93.5%.
Consider `CNC(=O)CN(C)Cc1c(C(=O)N2CCOCC2)nc2c(C)cccn12` [CBK307128], for which the viability at 28.5 h, 10 µM was 114%.
Under `CC(=O)N1CCc2nc(C)nc(NCCn3cccc3)c2CC1` [CBK307130] stands 83.7%.
